The values below come from patent US20090155338A1, “Chronotherapeutic Ocular Delivery System Comprising a Combination of Prostaglandin and a Beta-Blocker for Treating Primary Glaucoma” (ASTON UNIVERSITY, priority 2005, published 2009).

For series [1] the following is noted: hydrochloride salt, cited from earlier work.
The next series relates to IOP. The note with it: cited from earlier work; for efficiency in decreasing the 24-h IOP: compared with agents that decrease AH production.
The conditions of series [2]: cited from earlier work.
For series [3] the following is noted: cited from earlier work. This is another data set of the same source.
Series [4] in a line: In vitro delivery of drug from ocular inserts in a humidified Franz-diffusion cell, artificial lachrymal fluid receiver, HPLC. The format is physicochemical. An excerpt:
Delivery is monitored in vitro using a Franz-diffusion cell, with the insert in contact with a dialysis membrane to provide support. A membrane with an appropriate molecular weight cut-off is used to allow the passage of pharmaceutical product but not polymer. The receiver solution is an artificial lachrymal fluid, containing NaHCO3 2.2 g/l; NaCl 6.26 g/l; KCl 1.79 g/l; CaCl2.2H2O 0.0735 g/l; MgCl2.6H2O 0.0964 g/l in distilled water (pH to 7.5 with 0.1 M HCl). The temperature used in the diffusion cells is controlled so the internal temperature is 32° C. (the temperature of the corneal surface). The tops of the diffusion cells are sealed using parafilm and the system equilibrated overnight (to give a humid environment). The insert is weighed, then placed on the dialysis membrane and resealed. Samples of delivered pharmaceutical product are removed from the receiver fluid and replaced with fresh liquid to maintain a constant volume. Pharmaceutical product in the receiver fluid is analysed by HPLC. Samples of 1 ml are withdrawn and replaced at given intervals through the side arm. The insert is placed in the donor at time 0. Samples were analysed using HPLC methods described above. It is recommended that betaxolol is analysed within 24 h, or samples frozen. The quantity of drug which has been released at any given time can be calculated using the following equation: […] wherein: Vr is the volume of receiver (ml) Vs the sample volume C[n] is the concentration in the dissolution medium (mg/l) ΣC[m] is the sum total of previous concentrations (mg/l) Mt is the drug released at time t (mg)

Counter-ions that a name gives are not always drawn.

Consider `CC(C)NCC(O)COc1ccc(CCOCC2CC2)cc1` (stereo not shown) [Betaxolol], for which the “time of maximum effect” value in series [1] (after topical administration) is given as “about 2 hours”. Further, the onset of action in series [1] (topical administration) is at most 30 min.

In the case of `CCNC(=O)CCC/C=C\C[C@@H]1[C@@H](/C=C/[C@@H](O)CCc2ccccc2)[C@H](O)C[C@@H]1O` [bimatoprost], in the series with IOP, the “efficiency in decreasing the 24-h IOP” value is recorded as “more efficient in decreasing the 24-h IOP”.

Turning to `O=C(O)CCC/C=C\C[C@@H]1[C@@H](CC[C@@H](O)CCc2ccccc2)[C@H](O)C[C@@H]1O` [latanoprost acid], the “half-life in aqueous humor” value in series [2] was 2.8 h.

Consider `CC(C)OC(=O)CCC/C=C\C[C@@H]1[C@@H](CC[C@@H](O)CCc2ccccc2)[C@H](O)C[C@@H]1O` [latanoprost], for which the “efficiency in decreasing the 24-h IOP” value in the series on IOP is “more efficient in decreasing the 24-h IOP”. In addition, the “solubility in acetone and ethanol” value in series [3] (acetone and ethanol) is given as “soluble”. Besides, the solubility in water entry in series [3] (water) was “insoluble”.

On to `CC(C)(C)NC[C@H](O)COc1nsnc1N1CCOCC1` [timolol, timolol maleate], for which the “capacity in decreasing IOP at night” value in the series with IOP (night) is listed as “reduced capacity in decreasing IOP at night”. In series [4] (laminated travoprost/timolol insert, 6 hours), the “timolol released by 6 hours from the beginning of the experiment” value is on record as “over 90%”. The “timolol released for the first 5 hours” value in series [4] (laminated travoprost/timolol insert, first 5 hours) is on record as “essentially no timolol was released”.

For the molecule `CC(C)OC(=O)CCC/C=C\C[C@@H]1[C@@H](/C=C/[C@@H](O)COc2cccc(C(F)(F)F)c2)[C@H](O)C[C@@H]1O` [travoprost], in the series on IOP, the “efficiency in decreasing the 24-h IOP” value is on record as “more efficient in decreasing the 24-h IOP”. The “period over which travoprost was released at a substantially constant rate” value in series [4] (laminated travoprost/timolol insert, humidity, 32° C., FIG. 5) is given as “about 8 hours”. For the same molecule, the “period over which travoprost was released at a substantially-constant rate” value in series [4] (single layer PEO insert with 10% carbopol, travoprost alone, humidity, 32° C., FIG. 4) is listed as “about 8 hours”.
